From patent US12202821B2, “Herbicidal compounds” (SYNGENTA CROP PROTECTION AG, priority 2019, dated 2025)

Experiments:
Format in all cases: in vivo
CHEAL = assay: Post-emergence biological efficacy; details: evaluated after 13 days; for pest or weed control at 250 g/ha: Chenopodium album, 312 h, read-out: damage to plant (100=total damage to plant; 0=no damage to plant), CHEAL
Description: (§1) Post-Emergence Biological Efficacy
(§2) Seeds of weeds and/or crops were sown in standard soil in pots. After cultivation for 8 days under controlled conditions in a glasshouse (at 24/16° C., day/night; 14 hours light; 65% humidity), the plants were sprayed with an aqueous spray solution derived from the formulation of the technical active ingredient in acetone/water (50:50) solution containing 0.5% Tween 20 (polyoxyethylene sorbitan monolaurate, CAS RN 9005-64-5) to give the desired final dose of test compound.
(§3) The test plants were then grown on under controlled conditions in a glasshouse (at 24/16° C., day/night; 14 hours light; 65% humidity) and watered twice daily. After 13 days the test was evaluated (100=total damage to plant; 0=no damage to plant).

SETFA [1] = assay: Post-emergence biological efficacy; details: evaluated after 13 days; for pest or weed control at 250 g/ha: Setaria faberi, 312 h, read-out: damage to plant (100=total damage to plant; 0=no damage to plant), SETFA
Description: as §1, §2, §3

AMAPA [2] = assay: Post-emergence biological efficacy; details: evaluated after 13 days; for pest or weed control at 250 g/ha: 312 h, read-out: damage to plant (100=total damage to plant; 0=no damage to plant), AMAPA
Description: as §1, §2, §3

LOLPE [3] = assay: Post-emergence biological efficacy; details: evaluated after 13 days; for damage to plant (100=total damage to plant; 0=no damage to plant), LOLPE: 250 g/ha; for pest or weed control at 250 g/ha: 312 h, read-out: damage to plant (100=total damage to plant; 0=no damage to plant), LOLPE
Description: as §1, §2, §3

DIGSA = assay: Post-emergence biological efficacy; details: evaluated after 13 days; for pest or weed control at 250 g/ha: Digitaria sanguinalis, 312 h, read-out: damage to plant (100=total damage to plant; 0=no damage to plant), DIGSA
Description: as §1, §2, §3

ELEIN = assay: Post-emergence biological efficacy; details: evaluated after 13 days; for pest or weed control at 250 g/ha: 312 h, read-out: damage to plant (100=total damage to plant; 0=no damage to plant), ELEIN
Description: as §1, §2, §3

ECHCG [4] = assay: Post-emergence biological efficacy; details: evaluated after 13 days; for pest or weed control at 250 g/ha: Echinochloa crus-galli, 312 h, read-out: damage to plant (100=total damage to plant; 0=no damage to plant), ECHCG
Description: as §1, §2, §3

IPOHE [5] = assay: Post-emergence biological efficacy; details: evaluated after 13 days; for pest or weed control at 250 g/ha: Ipomoea hederacea, 312 h, read-out: damage to plant (100=total damage to plant; 0=no damage to plant), IPOHE
Description: as §1, §2, §3

EPHHL [6] = assay: Post-emergence biological efficacy; details: evaluated after 13 days; for pest or weed control at 250 g/ha: 312 h, read-out: damage to plant (100=total damage to plant; 0=no damage to plant), EPHHL
Description: as §1, §2, §3

SETFA [7] = assay: Pre-emergence biological efficacy; details: evaluated after 13 days; for pest or weed control at 250 g/ha: Setaria faberi, 312 h, read-out: damage to plant (100=total damage to plant; 0=no damage to plant), SETFA
Description: (§4) Pre-Emergence Biological Efficacy
as §2, with “one day” for “8 days”
(§5) The test plants were then grown under controlled conditions in the glasshouse (at 24/16° C., day/night; 14 hours light; 65% humidity) and watered twice daily. After 13 days the test was evaluated (100=total damage to plant; 0=no damage to plant).

AMAPA [8] = assay: Pre-emergence biological efficacy; details: evaluated after 13 days; for pest or weed control at 250 g/ha: 312 h, read-out: damage to plant (100=total damage to plant; 0=no damage to plant), AMAPA
Description: as §4
as §2, with “one day” for “8 days”
as §5

LOLPE [9] = assay: Pre-emergence biological efficacy; details: evaluated after 13 days; for pest or weed control at 250 g/ha: 312 h, read-out: damage to plant (100=total damage to plant; 0=no damage to plant), LOLPE
Description: as §4
as §2, with “one day” for “8 days”
as §5

ECHCG [10] = assay: Pre-emergence biological efficacy; details: evaluated after 13 days; for pest or weed control at 250 g/ha: Echinochloa crus-galli, 312 h, read-out: damage to plant (100=total damage to plant; 0=no damage to plant), ECHCG
Description: as §4
as §2, with “one day” for “8 days”
as §5

IPOHE [11] = assay: Pre-emergence biological efficacy; details: evaluated after 13 days; for pest or weed control at 250 g/ha: Ipomoea hederacea, 312 h, read-out: damage to plant (100=total damage to plant; 0=no damage to plant), IPOHE
Description: as §4
as §2, with “one day” for “8 days”
as §5

EPHHL [12] = assay: Pre-emergence biological efficacy; details: evaluated after 13 days; for pest or weed control at 250 g/ha: 312 h, read-out: damage to plant (100=total damage to plant; 0=no damage to plant), EPHHL
Description: as §4
as §2, with “one day” for “8 days”
as §5

SMILES | damage to plant (100=total damage to plant; 0=no damage to plant), LOLPE (LOLPE [3]) | pest or weed control at 250 g/ha (CHEAL) | pest or weed control at 250 g/ha (SETFA [1]) | pest or weed control at 250 g/ha (AMAPA [2]) | pest or weed control at 250 g/ha (DIGSA) | pest or weed control at 250 g/ha (ELEIN) | pest or weed control at 250 g/ha (ECHCG [4]) | pest or weed control at 250 g/ha (IPOHE [5]) | pest or weed control at 250 g/ha (EPHHL [6]) | pest or weed control at 250 g/ha (SETFA [7]) | pest or weed control at 250 g/ha (AMAPA [8]) | pest or weed control at 250 g/ha (LOLPE [9]) | pest or weed control at 250 g/ha (ECHCG [10]) | pest or weed control at 250 g/ha (IPOHE [11]) | pest or weed control at 250 g/ha (EPHHL [12]) | pest or weed control at 250 g/ha (LOLPE [3]) | other results
CCOC(=O)C1(C)CC(c2cc(-n3c(=O)n(C)c(=S)n(C)c3=O)c(F)cc2Cl)=NO1 (single isomer, unassigned) [Compound 47 (enantiomer A)] | 70 |  |  |  |  |  |  |  |  |  |  |  |  |  |  |  | damage to plant (100=total damage to plant; 0=no damage to plant), CHEAL (CHEAL; 250 g/ha): 100; damage to plant (100=total damage to plant; 0=no damage to plant), SETFA (SETFA [1]; 250 g/ha): 100; damage to plant (100=total damage to plant; 0=no damage to plant), AMAPA (AMAPA [2]; 250 g/ha): 100; damage to plant (100=total damage to plant; 0=no damage to plant), DIGSA (DIGSA; 250 g/ha): 100; damage to plant (100=total damage to plant; 0=no damage to plant), ELEIN (ELEIN; 250 g/ha): 90; damage to plant (100=total damage to plant; 0=no damage to plant), ECHCG (ECHCG [4]; 250 g/ha): 100; damage to plant (100=total damage to plant; 0=no damage to plant), IPOHE (IPOHE [5]; 250 g/ha): 100; damage to plant (100=total damage to plant; 0=no damage to plant), EPHHL (EPHHL [6]; 250 g/ha): 90; damage to plant (100=total damage to plant; 0=no damage to plant), SETFA (SETFA [7]; 250 g/ha): 100; damage to plant (100=total damage to plant; 0=no damage to plant), AMAPA (AMAPA [8]; 250 g/ha): 100; damage to plant (100=total damage to plant; 0=no damage to plant), LOLPE (LOLPE [9]; 250 g/ha): 50; damage to plant (100=total damage to plant; 0=no damage to plant), ECHCG (ECHCG [10]; 250 g/ha): 60; damage to plant (100=total damage to plant; 0=no damage to plant), IPOHE (IPOHE [11]; 250 g/ha): 90; damage to plant (100=total damage to plant; 0=no damage to plant), EPHHL (EPHHL [12]; 250 g/ha): 100
CCOC(=O)C1(C)CC(c2cc(-n3c(=O)n(C)c(=S)n(C)c3=O)c(F)cc2Cl)=NO1 (single isomer, unassigned) [Compound 47 (enantiomer B)] | 100 | 100% | 100% | 100% | 100% | 100% | 100% | 100% | 100% | 100% | 100% | 40% | 50% | 80% | 100% |  | 
CCOC(=O)C1(C)CC(c2cc(-n3c(=O)n(C)c(=S)n(C)c3=O)ccc2Cl)=NO1 (stereo not drawn) [Compound 36, Ethyl 3-[2-chloro-5-(3,5-dimethyl-2,6-dioxo-4-thioxo-1,3,5-triazinan-1-yl)phenyl]-5-methyl-4H-isoxazole-5-carboxylate] |  | 90% | 100% | 100% | 100% | 50% | 100% | 70% | 90% | 90% | 70% | 10% | 90% | 40% | 70% | 50% | 
Cn1c(=S)n(C)c(=O)n(-c2cc(C3=NOC(C)(C(=O)O)C3)c(Cl)cc2F)c1=O (stereo not drawn) [Compound 45, 3-[2-chloro-5-(3,5-dimethyl-2,6-dioxo-4-thioxo-1,3,5-triazinan-1-yl)-4-fluoro-phenyl]-5-methyl-4H-isoxazole-5-carboxylic acid] |  | 100% | 100% | 100% | 100% | 100% | 100% | 100% | 100% | 100% | 100% | 100% | 100% | 100% | 100% | 100% | 
